Source: PMC9414676, “Experimental Studies Indicate That ST-2223, the Antagonist of Histamine H3 and Dopamine D2/D3 Receptors, Restores Social Deficits and Neurotransmission Dysregulation in Mouse Model of Autism” (Pharmaceuticals, 2022)

Legend:
[1] = test system: BTBR mice; assay: Open field locomotor test (OFL), anxiety-like behavior and locomotion; format: in vivo; settings: ARP 1 mg/kg i.p. chronic
Method: (§1) All the mice were randomly divided into nine groups of 5–7 mice each. The mice were injected intraperitonially once daily for 21 days with different doses of ST2223 (2.5, 5, and 10 mg/kg, i.p.), ARP 1 mg/kg or vehicle (1% DMSO in 0.9% normal saline). Group I, B6 mice were injected with vehicle served as control. Group II, BTBR mice were treated with vehicle. Groups III–V, BTBR mice received i.p. injections of different doses of ST2223 (2.5, 5, and 10 mg/kg, i.p.), respectively. Group VI, BTBR mice were injected with ARP (1 mg/kg, i.p.). For abrogation studies, Group VII, BTBR mice were treated with ST2223 (5 mg/kg, i.p.) along with RAM (10 mg/kg, i.p.). Group VIII, B6 mice were co-injected with vehicle and RAM (10 mg/kg, i.p). All treatments and vehicle (VEH) were administered 30–45 min before each behavioral test. The doses of these drugs were selected based on previous reports. Behavioral testing was performed between 9:00 am and 3:00 pm in an order randomized by group and in the following sequence: social approach test (SAT) and open field locomotor test (OFL). The chronic treatment started one week before the behavioral test and was continued for a total of 21 days as described above (Figure 7). Following behavioral tests, i.e., on day 21 of systemic treatment, five of the animals were sacrificed. The animals were deeply anesthetized with pentobarbital (40 mg/kg, i.p., body weight). To wash out the blood, cardiac perfusion was carried out using 0.01 M phosphate-buffered saline (PBS) at pH 7.4. The brains were quickly removed and placed on an ice plate, where the cerebellum, hippocampus, prefrontal cortex, and striatum were excised from the brain and snap-frozen in liquid nitrogen for later LC-MS/MS analysis.
Open field locomotor test (OFL) systematically assesses exploratory activity based on subjecting an animal to an unfamiliar environment whose escape is prevented by surrounding walls. It is a model of anxiety-like behavior, suitable for assessing motor activity as a reaction to an unknown environment, i.e., locomotion motivated by exploration. Both general locomotor activity and anxiety-related behaviors were assessed as the mice were placed individually inside an open field arena (45 × 45 × 30 cm) and were allowed to move freely for 10 min [80]. Mice were introduced into the center area of the arena (23 × 23 cm) and given 5 min habituation before actual behaviors recording. The overall distance moved inside the complete arena and time spent in the center and periphery was recorded for 10 min using CCD camera-assisted motion tracking equipment and software program (EthoVision 3.1, Noldus Information Technology, The Netherlands). Measurements obtained included total distance traveled and center and periphery time spent for […]. After each testing sessions, chambers we cleaned with 70% ethanol, and enough time was allowed for ethanol evaporation and odor dissipation. When evaluating the results, more time spent in the center indicated low levels of anxiety-like behaviors and total distance travelled represented locomotor activity.

[2] = test system: prefrontal cortex of B6 mice; parameters: method as in PMID 16023290; settings: 0.3 mg/kg of ARP; cited from earlier work
[3] = test system: BTBR mice; assay: Social approach test (SAT), sociability (novel mouse vs novel object); format: in vivo; settings: ARP 1 mg/kg i.p. chronic
Method: as §1
The social approach test (SAT) was performed using an automated three-chamber device (EthoVision® Software, Noldus, The Netherlands) as previously described. The transparent polycarbonate chamber is rectangular and is composed of three interconnected partitions (homemade), which are separated by two sliding doors. In brief, after 10 min of habituation, the study mouse was placed in the central chamber with the doors opened, and the mouse was given the choice to interact with either an empty plastic cup located in one side chamber, referred to as a novel object (NO), or a similar plastic cup with an unfamiliar mouse inside it located in the opposite chamber, referred to as a novel mouse (NM), which was matched in age, sex, and strain with test mouse. To avoid innate side preferences, the plastic cup for NO and NM were randomly placed in either chamber and the placement was changed between studies and between mice. For 10 min, the test mouse was allowed to explore all three chambers and cups, and the time spent interacting with NO and NM (sniffing) was automatically recorded by EthoVision® Software. Immediately after this session, a novel mouse is kept in the empty cup and is referred to as novel mouse (NM), and the mouse in the other cup from the earlier session is referred to as familiar mouse (FM). The study mouse is allowed to explore the three chambers for 10 min, and the time spent for interacting with both mice was automatically recorded, to assess social novelty preference. Eight groups of 7 mice/group were used for the SAT. To allow the direct comparison of social behavior between the treated groups, the sociability index (SI) and social novelty index (SNI) were calculated with the following formula, as previously described: SI=(Time exploring NM−Time exploring NO)/(Time exploring NM+Time exploring NO) SNI=(Time exploring NM−Time exploring FM)/(Time exploring NM+Time exploring FM)

[4] = test system: histamine levels in BTBR mice brain; assay: Histamine levels by LC-MS/MS in brain regions; format: in vivo; parameters: key to Histamine level: ↔: No significant alterations; ↑: significant increase; ↑↑: additional significant increase vs. ST-2223-treated mice; ↓: significant decrease; settings: ARP 1 mg/kg i.p. chronic, vs VEH-treated BTBR mice
Method: as §1
(§2) Perfusion was done on anesthetized animals using 1X PBS as described previously. Different regions of the brain were snap frozen. Frozen tissues were then weighed and homogenized in a 10-fold volume of acetonitrile. For 50mg of tissue, 500 µL of acetonitrile and Internal standard mix were added and homogenized. Homogenates were centrifuged at 15,000 rcf for 15 min at 4 °C. Tissue levels of dopamine, acetylcholine, histamine, and their metabolites were assessed using LC-MS/MS. LC-MS/MS analysis was conducted utilizing Waters BEH C18 COLUMN (2.1 × 100 mm, 1.7 µm) using Waters Acquity UPLC Binary Solvent Manager and FTN Sample Manager. The system was run in gradient mode with mobile phase A consisting of LC-MS GRADE WATER + 0.1% FORMIC ACID and mobile phase B consisting of 100% ACETONITRILE. Mobile phase was duly filtered through 0.2 µm filter and degassed ultrasonically for 15 min prior to use. Separations were performed at room temperature with 0.3 mL/min flow rate gradient starting with 90% of A for up to 0.5 min. Then, % of A was decreased gradually until it reached 20% at 2.5 min after which at 3 min %A was brought back to the initial condition and left for equilibration for 2 more minutes before the next injection (total 5 min run time). The injection volume was kept at 1 µL. Mass spectrometric detection was performed in multiple reaction monitoring (MRM) mode with positive electrospray ionization (ESI+) on Xevo TQS mass spectrometer (Waters, Milford, MA) equipped with an electrospray ionization (ESI) source and triple quadrupole mass analyzer. MRM transitions and instrument parameters were set by tuning the instrument by infusing each analyte. MRM transitions taken for quantification were 146.2 > 87.1 for Acetylcholine, 112.2 > 95.2 for Histamine, 154.1 > 137.2 for Dopamine, 150.2 > 91.3 for Acetylcholine D4, and […] > 99.3 for Histamine D4. Capillary Voltage, Source Offset, Source Temperature, De solvation Temperature, Cone Gas Flow, De solvation Gas Flow, Collision Gas Flow, Nebulizer Gas Flow were set as 3.0 (kV), 60.0 (V), 150 (°C), 550 (°C), 150 (L/Hr), 1000 (L/Hr), 0.13 (mL/min), and 7 (Bar), correspondingly. […]

[5] = test system: acetylcholine levels in BTBR mice brain; assay: Acetylcholine levels by LC-MS/MS in brain regions; format: in vivo; parameters: key to Acetylcholine level: ↔: No significant alterations; ↑: significant increase; ↑↑: additional significant increase vs. ST-2223-treated mice; ↓: significant decrease; settings: for Acetylcholine level: ARP 1 mg/kg i.p. chronic, vs VEH-treated BTBR mice
Method: as §1, §2

[6] = test system: dopamine levels in BTBR mice brain; assay: Dopamine levels by LC-MS/MS in brain regions; format: in vivo; parameters: key to Dopamine level: ↔: No significant alterations; ↑: significant increase; ↑↑: additional significant increase vs. ST-2223-treated mice; ↓: significant decrease; settings: ARP 1 mg/kg i.p. chronic, vs VEH-treated BTBR mice
Method: as §1, §2

[7] = test system: BTBR mice; assay: Social approach test (SAT), social novelty preference (novel mouse vs familiar mouse); format: in vivo; settings: ARP 1 mg/kg i.p. chronic, p < 0.001
Method: as §1
The social approach test (SAT) was performed using an automated three-chamber device (EthoVision® Software, Noldus, The Netherlands) as previously described. The transparent polycarbonate chamber is rectangular and is composed of three interconnected partitions (homemade), which are separated by two sliding doors. […] For 10 min, the test mouse was allowed to explore all three chambers and cups, and the time spent interacting with NO and NM (sniffing) was automatically recorded by EthoVision® Software. […] The study mouse is allowed to explore the three chambers for 10 min, and the time spent for interacting with both mice was automatically recorded, to assess social novelty preference. […] To allow the direct comparison of social behavior between the treated groups, the sociability index (SI) and social novelty index (SNI) were calculated with the following formula, as previously described: SI=(Time exploring NM−Time exploring NO)/(Time exploring NM+Time exploring NO) SNI=(Time exploring NM−Time exploring FM)/(Time exploring NM+Time exploring FM)

## O=C1CCc2ccc(OCCCCN3CCN(c4cccc(Cl)c4Cl)CC3)cc2N1 [ARP, aripiprazole, reference compound]
[1]
  abnormal anxiety observed by BTBR mice: failed to restore the abnormal anxiety
  time spent in the periphery: no group differences
[1]; p < 0.01
  total distance travelled vs VEH-treated BTBR mice: significantly decreased the total distance travelled
[2]
  DA levels in dialysate: significant increase of DA levels in dialysate
[3]
  sociability, time exploring NM compared to NO: markedly increased sociability
[3]; p < 0.001
  exploring time spent with NM vs VEH-treated BTBR mice: significantly improved exploring time spent with NM
[4]; p < 0.05
  levels of histamine in brain regions: increased the levels of histamine in the cerebellum, striatum, and hippocampus
[4]; Cerebellum
  Histamine level: ↑ ^b
[4]; Hippocampus
  Histamine level: ↑ ^b
[4]; Prefrontal cortex
  Histamine level: ↔
[5]; ARP 1 mg/kg chronic, p < 0.05
  acetylcholine levels: signified increase in the levels of acetylcholine in the prefrontal cortex, cerebellum, and striatum tissues
[5]; Cerebellum
  Acetylcholine level: ↑ ^b
[5]; Hippocampus
  Acetylcholine level: ↔
[5]; Prefrontal cortex
  Acetylcholine level: ↑ ^b
[5]; Striatum
  Acetylcholine level: ↑ ^b
[6]; Cerebellum
  Dopamine level: ↓^b
[6]; Hippocampus
  Dopamine level: ↓^b
[6]; Prefrontal cortex
  Dopamine level: ↔
[7]
  preference to novel mouse (NM) over familiar mouse (FM) vs VEH-treated BTBR mice: enhanced preference to stranger NM over FM
